Source: patent US20240024504A1, “SITE-SELECTIVE LYSINE ACETYLATION OF HUMAN IMMUNOGLOBULIN G AND IgG-RELATED PRODUCTS FOR IMMUNOTHERAPY” (The Chinese University of Hong Kong, priority 2022, published 2024)
Numbered stars: 1 amine (or outer) side, 2 acyl side, 3 side chain; on linkers, the order of the positions; unused ones are H or OH. Bridge positions count the residues as written; N and C are the ends. Square brackets hold non-standard residues; d marks the D form. Peptide text beside a SMILES is read from it. * marks the point of attachment. X1 = O=C(O)c1cc(NC(=S)*)ccc1-c1c2ccc(=O)cc-2oc2cc(O)ccc12; X4 = [N-]=[N+]=NCC(=O)Nc1ccc(N*)cc1; Dap = NC[C@H](N)C(=O)O; X3 = O=C(C[*:2])[*:1]; X2 = Oc1ccc(N*)cc1; βAla = NCCC(=O)O

Key:
human IgG Fc = assay: Peptide-driven acetylation (labelling) of human IgG Fc, SDS-PAGE in-gel fluorescence / MALDI-TOF MS; type: biochemical; settings: for yield of the labeled Fc: MS peak area after Glu-C digestion (F11: in-gel fluorescence, ImageJ)
Description: (§1) FIG. 2A-2C Kinetic details of the acetylation reaction and hydrolysis of F1. (FIG. 2A) Reactions at different peptide-to-IgG Fc ratios. Reactions were performed in PBS buffer (pH 7.4) at 37° C. for 1 h. Protein loading in each lane is 2 μg. (FIG. 2B) Reaction kinetics. Reaction condition: 4 μM IgG Fc, 24 μM F1, PBS buffer (pH 7.4), at 37° C. The reactions were quenched with 1% SDS at different time points. After conducting an SPAAC reaction with DBCO-PEG4-TAMRA, the reactions were denatured and resolved by SDS-PAGE. Product conversion was quantified based on band-shift in the SDS-PAGE image. (FIG. 2C) Hydrolysis of peptide ester (24 μM) monitored by HPLC in pH 7.4 PBS buffer at 37° C.
FIG. 27A-27B The study of IgG Fc acetylation reaction with different payloads. (FIG. 27A) A set of reactive peptides with different acyl groups tested for labeling efficiency. (FIG. 27B) The yields of IgG Fc labeled by peptides at 37° C. Reaction condition: 4 μM IgG Fc, 24 μM peptide, in PBS buffer (pH 7.4) for 2 h or in borate buffer (pH 8.5) for 15 h, respectively. […] The yields were quantified by MS analysis with in-solution Glu-C digestion of modified Fc or by in-gel fluorescent image (FIGS. 27A-27B, […]).
(§2) IgG or IgG Fc labelling reactions. Unless otherwise noted, the final concentrations of proteins were 4 μM and peptides were 24 μM. The conjugation reactions were performed in PBS buffer (pH 7.4, 137 mM NaCl, 2.7 mM KCl, 10 mM Na2HPO4, 1.8 mM KH2PO4) at 37° C. for 1 h and stopped by 1% SDS. For copper-free click chemistry, the protein-peptide reaction mixture was first incubated with 100 uM DBCO-TAMRA at room temperature for 2 h and then denatured in the presence of loading dye. After resolved by SDS-PAGE, the gel was first observed in the fluorescence channel, and then stained with Coomassie Brilliant Blue dye.
Characterization of IgG or IgG Fc modification by MALDI-TOF MS. To characterize Fc region, 5 μg protein sample was used. Firstly, Fc was treated in the presence of TCEP (20 mM) at 60° C. for 10 min. Then, the sample was acidified with TFA at a pH of <4. After prewetting, C4 ZipTip was equilibrated with water (0.1% TFA). Binding of Fc was realized by aspirating and dispensing sample 7 to 10 cycles. The tip was next washed 3 times and eluted by 5 μL 70% acetonitrile/water solution with 0.1% TFA. Now the sample was ready for MALDI-TOF MS analysis. For characterization of modified Fc region, the reaction was first quenched by acidification (For acid labile antibodies, the peptide f-F0 could be used to quench the reaction.). After coupling with DBCO-TAMRA, the sample was reduced. Then, the sample was desalted and concentrated by using the same procedure. […] Next the sample was purified by HPLC with C4 column, and peaks were collected and lyophilized. The sample was dissolved in 50% acetonitrile/water solution with 0.1% TFA and subjected to MALDI-TOF MS analysis.

atezolizumab [1] = target: T1, atezolizumab (Homo sapiens, UniProt P01857, D239E/L241M/N180A); assay: biochemical
Description: Ligand-induced fluorescence change was used to determine the Kd value. (FIG. 13A) Dose response curve. (FIG. 13B) Capillary scans. (FIG. 13C) MST traces.
Ligand-induced fluorescence change was used to determine the Kd value. (FIG. 14A) Dose response curve. (FIG. 14B) Capillary scans. (FIG. 14C) MST traces.
Ligand-induced fluorescence change was used to determine the Kd value. (FIG. 15A) Dose response curve. (FIG. 15B) Capillary scans. (FIG. 15C) MST traces.
Microscale thermophoresis (MST) binding experiments. […] The measurements were performed in phosphate buffered saline supplemented with 0.05% Tween-20 (PBS-T). […] The measurements were performed on a NanoTemper Technologies Monolith NT.115 instrument. The settings of MST power was medium and LED power was Auto-detect.

[2] = Hydrolysis of peptide ester monitored by HPLC; type: physicochemical
Description: as §1

atezolizumab [3] = target: T1, atezolizumab; assay: Acetylation of atezolizumab by peptide F1, MALDI-TOF MS / SDS-PAGE; type: biochemical; set-up: purchased SelleckChem A2004; settings: for heavy chain modified: 4 μM Atezo, 24 μM F1, PBS pH 7.4, 37° C., MALDI-TOF MS
Description: (FIG. 4A) Acetylation reaction monitored by SDS-PAGE and fluorescent scanning. Reaction condition: 4 μM Atezo, 24 μM F1, PBS buffer (pH 7.4), at 37° C. for 1 h. The reactions were quenched with 1% SDS and DBCO-TAMRA was added at room temperature for 1.5 h for SPAAC reaction before SDS-PAGE and in-gel fluorescent imaging. […] (FIG. 4C) In-gel digestion for MALDI-TOF MS analysis to identify the acetylation site. Modified Lys 248 was marked in red. L chain: light chain, H chain: heavy chain, M-H chain: modified heavy chain, Atezo: atezolizumab.
as §2
Characterization of IgG or IgG Fc modification by MALDI-TOF MS. To characterize Fc region, 5 μg protein sample was used. Firstly, Fc was treated in the presence of TCEP (20 mM) at 60° C. for 10 min. Then, the sample was acidified with TFA at a pH of <4. After prewetting, C4 ZipTip was equilibrated with water (0.1% TFA). Binding of Fc was realized by aspirating and dispensing sample 7 to 10 cycles. The tip was next washed 3 times and eluted by 5 μL 70% acetonitrile/water solution with 0.1% TFA. Now the sample was ready for MALDI-TOF MS analysis. For characterization of modified Fc region, the reaction was first quenched by acidification (For acid labile antibodies, the peptide f-F0 could be used to quench the reaction.). After coupling with DBCO-TAMRA, the sample was reduced. Then, the sample was desalted and concentrated by using the same procedure. […]

rabbit IgG = assay: Target selectivity of peptide-driven acetylation towards IgG from different species (rabbit); type: biochemical; settings: 4 μM protein, 24 μM F1, PBS pH 7.4, 37° C., 1 h
Description: (§3) FIG. 10 Target selectivity of peptide-driven acetylation towards IgG from different species. Reaction condition: 4 μM protein, 24 μM F1, PBS buffer (pH 7.4), at 37° C. for 1 h. The reactions were quenched with 1% SDS and DBCO-TAMRA was added at room temperature for 1.5 h for copper-free click chemistry. […] Each lane contains […] of antibodies.
as §2

IgG Fc from mice = assay: Target selectivity of peptide-driven acetylation towards IgG from different species (mouse); type: biochemical; settings: 4 μM protein, 24 μM F1, PBS pH 7.4, 37° C., 1 h
Description: as §3, §2

[4] = tested on: IgG Fc in a protein mixture of HeLa cell lysate; settings: Fc-spiked HeLa cell lysate, RIPA lysis buffer pH 7.4, 37° C., 1 h, 6-fold excess of peptide
Description: Fc protein was spiked to a mixture of proteins from HeLa cell lysate, and the F1 peptide was added to the lysate to initiate acetylation reaction. […] Reactions were performed in pH 7.4 RIPA lysis buffer at 37° C. for 1 h with a 6-fold excess of peptides, followed by copper-free click chemistry with DBCO-TAMRA. Then the reactions were analyzed by denaturing SDS-PAGE and imaged using in-gel fluorescence scanning and Coomassie blue staining.

[5] = 4 μM IgG Fc, 24 μM peptide, 37° C., PBS buffer (pH 7.4) for 2 h
[6] = 4 μM IgG Fc, 24 μM peptide, 37° C., borate buffer (pH 8.5) for 15 h

T1 sequence (P01857 whole entry N180A/D239E/L241M, looked up, other chains not shown): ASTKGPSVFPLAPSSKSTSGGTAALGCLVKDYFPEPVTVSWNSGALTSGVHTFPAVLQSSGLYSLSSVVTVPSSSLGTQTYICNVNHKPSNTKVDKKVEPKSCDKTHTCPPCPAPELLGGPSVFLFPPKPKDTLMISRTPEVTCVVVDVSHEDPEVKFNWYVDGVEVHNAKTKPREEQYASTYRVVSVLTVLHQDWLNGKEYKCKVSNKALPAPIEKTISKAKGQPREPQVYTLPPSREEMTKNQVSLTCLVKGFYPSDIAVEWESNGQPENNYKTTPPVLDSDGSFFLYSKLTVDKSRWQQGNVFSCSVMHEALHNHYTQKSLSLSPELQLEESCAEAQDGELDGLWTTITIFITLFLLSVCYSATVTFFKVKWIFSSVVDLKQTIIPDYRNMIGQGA

C#CCCC(=O)Oc1ccc(NC(=O)CC[C@@H]2NC(=O)CNC(=O)[C@H](CC(C)C)NC(=O)[C@H](Cc3c[nH]cn3)NC(=O)[C@H](Cc3c[nH]c4ccccc34)NC(=O)[C@H](C)NC(=O)[C@@H](NC(=O)[C@H](CC(=O)O)NC(C)=O)CNC(=O)CSC[C@@H](C(=O)N[C@H](C(N)=O)[C@@H](C)O)NC(=O)[C@H](Cc3c[nH]c4ccccc34)NC(=O)[C@H](C(C)C)NC(=O)[C@H](CC(C)C)NC2=O)cc1 [F8]
yield of the labeled Fc (human IgG Fc; [5]): about 17% | yield of the labeled Fc (human IgG Fc; [6]): 84%

CC(=O)N[C@@H](CC(=O)O)C(=O)N[C@H]1CNC(=O)CSC[C@@H](C(=O)N[C@H](C(N)=O)[C@@H](C)O)NC(=O)[C@H](Cc2c[nH]c3ccccc23)NC(=O)[C@H](C(C)C)NC(=O)[C@H](CC(C)C)NC(=O)[C@H](CCC(=O)Nc2ccc(OC(=O)c3ccc(C(=O)c4ccccc4)cc3)cc2)NC(=O)CNC(=O)[C@H](CC(C)C)NC(=O)[C@H](Cc2c[nH]cn2)NC(=O)[C@H](Cc2c[nH]c3ccccc23)NC(=O)[C@H](C)NC1=O [F10]
yield of the labeled Fc (human IgG Fc; [5]): about 5% | mass shift of Fc after reaction (MALDI-TOF MS) (human IgG Fc; 4 μM IgG Fc, 24 μM peptide, 37° C., PBS pH 7.4 2 h or borate pH 8.5 15 h): No obvious mass shift was observed | yield of the labeled Fc (human IgG Fc; [6]): 26%

CC(C)C[C@@H]1NC(=O)[C@H](Cc2c[nH]cn2)NC(=O)[C@H](Cc2c[nH]c3ccccc23)NC(=O)[C@H](C)NC(=O)[C@@H](NC(=O)[C@H](CC(=O)O)NC(=O)CCNC(=O)CNC(=S)Nc2ccc(-c3c4ccc(=O)cc-4oc4cc(O)ccc34)c(C(=O)O)c2)CNC(=O)CSC[C@@H](C(=O)N[C@H](C(N)=O)[C@@H](C)O)NC(=O)[C@H](Cc2c[nH]c3ccccc23)NC(=O)[C@H](C(C)C)NC(=O)[C@H](CC(C)C)NC(=O)[C@H](CCC(=O)Nc2ccc(O)cc2)NC(=O)CNC1=O [f-F4] (X1-G[βAla]D[Dap]AWHLGE(X2)LVWCT-NH2; linker 4-14 via X3)
Kd (atezolizumab [1]): 1500 nM

CC(=O)N[C@@H](CC(=O)O)C(=O)N[C@H]1CNC(=O)CSC[C@@H](C(=O)N[C@H](C(N)=O)[C@@H](C)O)NC(=O)[C@H](Cc2c[nH]c3ccccc23)NC(=O)[C@H](C(C)C)NC(=O)[C@H](CC(C)C)NC(=O)[C@H](CCC(=O)Nc2ccc(OC(=O)CN=[N+]=[N-])cc2)NC(=O)CNC(=O)[C@H](CC(C)C)NC(=O)[C@H](Cc2c[nH]cn2)NC(=O)[C@H](Cc2c[nH]c3ccccc23)NC(=O)[C@H](C)NC1=O [F1]
stability of peptide ([2]; basic condition (pH 8.5)): extremely unstable at basic condition | peptide ester lost by hydrolysis ([2]; in 1 h at pH 7.4, PBS, 37° C., 24 μM, absence of IgGs): about 70% | chain selectivity of acetylation (atezolizumab [3]; 37° C. for 1 h): acetylated the heavy chain only | heavy chain modified (atezolizumab [3]; in 15 minutes): ~50% | heavy chain modified (atezolizumab [3]; in 1 h): ~80% | reactivity with IgG Fc by species (rabbit IgG): only reacted with human and rabbit IgG Fcs | time to 50% completion of the acetylation reaction (human IgG Fc; 4 μM IgG Fc, 24 μM F1, PBS buffer pH 7.4, 37° C.): less than 30 min | acetylation reaction conversion within 1 h (human IgG Fc; IgG Fc 2 μM to 20 μM, F1:IgG Fc ratio 6:1, PBS pH 7.4, 37° C.): > 50% | reactivity with IgG Fc by species (human IgG Fc; human, 4 μM protein, 24 μM F1, PBS pH 7.4, 37° C., 1 h): only reacted with human and rabbit IgG Fcs | reactivity with IgG Fc by species (IgG Fc from mice): not the IgG Fc from mice | selectivity of acetylation in a complex protein mixture [4]: selectively acetylate IgG Fc in a protein mixture of HeLa cell lysate without an appreciable level of background reactions

CC(=O)N[C@@H](CC(=O)O)C(=O)N[C@H]1CNC(=O)CSC[C@@H](C(=O)N[C@H](C(N)=O)[C@@H](C)O)NC(=O)[C@H](Cc2c[nH]c3ccccc23)NC(=O)[C@H](C(C)C)NC(=O)[C@H](CC(C)C)NC(=O)C(CCC(=O)Nc2cccc(OC(=O)CN=[N+]=[N-])c2)NC(=O)CNC(=O)[C@H](CC(C)C)NC(=O)[C@H](Cc2c[nH]cn2)NC(=O)[C@H](Cc2c[nH]c3ccccc23)NC(=O)[C@H](C)NC1=O (some centres unmarked) [F6]
acetylation yield compared with F1 (human IgG Fc; 3-aminophenol linker instead of 4-aminophenol): markedly decreased the acetylation yield

CC(C)C[C@@H]1NC(=O)[C@H](Cc2c[nH]cn2)NC(=O)[C@H](Cc2c[nH]c3ccccc23)NC(=O)[C@H](C)NC(=O)[C@@H](NC(=O)[C@H](CC(=O)O)NC(=O)CCNC(=O)CNC(=S)Nc2ccc(-c3c4ccc(=O)cc-4oc4cc(O)ccc34)c(C(=O)O)c2)CNC(=O)CSC[C@@H](C(=O)N[C@H](C(N)=O)[C@@H](C)O)NC(=O)[C@H](Cc2c[nH]c3ccccc23)NC(=O)[C@H](C(C)C)NC(=O)[C@H](CC(C)C)NC(=O)[C@H](CCC(=O)Nc2ccc(NC(=O)CN=[N+]=[N-])cc2)NC(=O)CNC1=O [f-F5] (X1-G[βAla]D[Dap]AWHLGE(X4)LVWCT-NH2; linker 4-14 via X3)
Kd (atezolizumab [1]): 2000 nM

CC(=O)N[C@@H](CC(=O)O)C(=O)N[C@H]1CNC(=O)CSC[C@@H](C(=O)N[C@H](C(N)=O)[C@@H](C)O)NC(=O)[C@H](Cc2c[nH]c3ccccc23)NC(=O)[C@H](C(C)C)NC(=O)[C@H](CC(C)C)NC(=O)C(CCC(=O)Nc2ccc(OC(=O)CCCC[C@@H]3SC[C@@H]4NC(=O)N[C@@H]43)cc2)NC(=O)CNC(=O)[C@H](CC(C)C)NC(=O)[C@H](Cc2c[nH]cn2)NC(=O)[C@H](Cc2c[nH]c3ccccc23)NC(=O)[C@H](C)NC1=O (some centres unmarked) [F9]
yield of the labeled Fc (human IgG Fc; [5]): about 18% | yield of the labeled Fc (human IgG Fc; [6]): 73%

CC(=O)N[C@@H](CC(=O)O)C(=O)N[C@H]1CNC(=O)CSC[C@@H](C(=O)N[C@H](C(N)=O)[C@@H](C)O)NC(=O)[C@H](Cc2c[nH]c3ccccc23)NC(=O)[C@H](C(C)C)NC(=O)[C@H](CC(C)C)NC(=O)[C@H](CCC(=O)Nc2ccc(OC(C)=O)cc2)NC(=O)CNC(=O)[C@H](CC(C)C)NC(=O)[C@H](Cc2c[nH]cn2)NC(=O)[C@H](Cc2c[nH]c3ccccc23)NC(=O)[C@H](C)NC1=O [F7]
yield of the labeled Fc (human IgG Fc; [5]): about 41% | yield of the labeled Fc (human IgG Fc; [6]): 90%
